For one assay, the system named is KIVD. The settings on record: Yep et al., Bioorg. Chem. 34:325-336 (2006); cited from earlier work.
A further assay concerns the target IPDC (Salmonella enterica, UniProt H9L492). The settings on record: ketoleucine vs ketovaline.

Chain of IPDC (H9L492 1-550): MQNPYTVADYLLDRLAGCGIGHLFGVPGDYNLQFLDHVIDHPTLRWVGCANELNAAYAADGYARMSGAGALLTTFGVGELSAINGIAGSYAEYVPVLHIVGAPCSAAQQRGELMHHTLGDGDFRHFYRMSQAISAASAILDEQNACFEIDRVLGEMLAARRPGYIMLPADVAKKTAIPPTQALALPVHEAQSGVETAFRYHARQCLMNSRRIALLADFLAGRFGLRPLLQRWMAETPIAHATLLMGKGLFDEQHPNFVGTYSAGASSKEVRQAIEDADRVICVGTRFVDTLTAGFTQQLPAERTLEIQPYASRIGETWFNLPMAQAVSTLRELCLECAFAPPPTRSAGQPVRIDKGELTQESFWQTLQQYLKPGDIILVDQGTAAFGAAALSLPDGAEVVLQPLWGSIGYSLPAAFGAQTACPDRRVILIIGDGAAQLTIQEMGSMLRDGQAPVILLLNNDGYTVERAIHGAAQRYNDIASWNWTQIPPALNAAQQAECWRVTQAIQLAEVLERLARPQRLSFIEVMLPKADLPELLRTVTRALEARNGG

As usually defined, the Km is the substrate concentration at which the rate is half of its maximum. Turning to `CC(C)C(=O)C(=O)O` [ketovaline], in the assay with KIVD, the Michaelis constant (Km) is 2.8 mM and the “kcat of KIVD” value is 48 s⁻¹.

On to `CC(C)CC(=O)C(=O)O` [ketoleucine], for which, on IPDC, the “specificity constant kcat/Km of IPDC, fold higher than towards ketovaline” value was found to be 4 fold. In the assay on KIVD, the Km was 37 mM and the “kcat of KIVD” value is 49 s⁻¹.
